Consider 13 compounds from US12686665B2, “Bicyclic fused ring derivative or salt thereof and pharmaceutical composition comprising same” (YUHAN CORPORATION, priority 2021, dated 2026).

By IC50 is commonly meant the concentration that gives 50% inhibition.

Assay [1] deals with UUO animal model causing kidney disease. The following applies: cited from earlier work.
In assay [2] the target is T1, recombinant human Lysyl Oxidase-Like 2 (LOXL2) (Homo sapiens, UniProt Q9Y4K0).
T1 construct: purchased R&D systems
T1 sequence (Q9Y4K0 26-774): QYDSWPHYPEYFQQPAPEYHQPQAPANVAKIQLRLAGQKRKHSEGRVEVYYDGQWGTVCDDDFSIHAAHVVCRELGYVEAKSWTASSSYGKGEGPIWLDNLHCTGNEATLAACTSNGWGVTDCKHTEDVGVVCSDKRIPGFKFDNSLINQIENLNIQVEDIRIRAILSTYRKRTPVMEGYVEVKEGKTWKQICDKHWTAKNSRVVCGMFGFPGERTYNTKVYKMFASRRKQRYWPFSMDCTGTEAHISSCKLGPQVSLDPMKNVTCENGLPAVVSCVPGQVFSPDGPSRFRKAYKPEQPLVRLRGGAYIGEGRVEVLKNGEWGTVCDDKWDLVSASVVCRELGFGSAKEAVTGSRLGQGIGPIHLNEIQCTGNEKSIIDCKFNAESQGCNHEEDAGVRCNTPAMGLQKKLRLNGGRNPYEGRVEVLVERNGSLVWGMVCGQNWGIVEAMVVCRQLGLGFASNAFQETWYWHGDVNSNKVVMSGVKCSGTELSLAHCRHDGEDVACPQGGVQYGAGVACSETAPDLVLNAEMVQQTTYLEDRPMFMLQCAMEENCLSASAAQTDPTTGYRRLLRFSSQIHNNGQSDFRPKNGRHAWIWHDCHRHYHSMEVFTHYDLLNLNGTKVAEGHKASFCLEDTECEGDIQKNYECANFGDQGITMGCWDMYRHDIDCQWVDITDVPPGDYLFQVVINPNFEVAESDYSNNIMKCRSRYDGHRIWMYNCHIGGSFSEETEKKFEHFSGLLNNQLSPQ
In words: Amplex Red HRP-coupled amine oxidase assay, recombinant human LOXL2. The assay is classed as biochemical. The following applies: 60 min incubation with enzyme at 37° C., putrescine substrate, read-out: Inhibitory activity (IC50, nM) human LOXL2. In a few lines:
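Putrescine substrate (30 mM) in 50 mM sodium phosphate pH 7.4, 37 °C; compounds preincubated 60 min with enzyme, 1% DMSO final, six-point curves. H2O2 detected via 400 μM Amplex Red/2 U/mL HRP, fluorescence (ex 530/em 590 nm) after 1 h; IC50 from four-parameter logistic fit of % signal reduction.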

Assay [3] has as its target T2, recombinant human MAO-A (monoamine oxidase-A) (Homo sapiens, UniProt P21397).
T2 construct: purchased Sigma-Aldrich
T2 sequence (P21397 1-527): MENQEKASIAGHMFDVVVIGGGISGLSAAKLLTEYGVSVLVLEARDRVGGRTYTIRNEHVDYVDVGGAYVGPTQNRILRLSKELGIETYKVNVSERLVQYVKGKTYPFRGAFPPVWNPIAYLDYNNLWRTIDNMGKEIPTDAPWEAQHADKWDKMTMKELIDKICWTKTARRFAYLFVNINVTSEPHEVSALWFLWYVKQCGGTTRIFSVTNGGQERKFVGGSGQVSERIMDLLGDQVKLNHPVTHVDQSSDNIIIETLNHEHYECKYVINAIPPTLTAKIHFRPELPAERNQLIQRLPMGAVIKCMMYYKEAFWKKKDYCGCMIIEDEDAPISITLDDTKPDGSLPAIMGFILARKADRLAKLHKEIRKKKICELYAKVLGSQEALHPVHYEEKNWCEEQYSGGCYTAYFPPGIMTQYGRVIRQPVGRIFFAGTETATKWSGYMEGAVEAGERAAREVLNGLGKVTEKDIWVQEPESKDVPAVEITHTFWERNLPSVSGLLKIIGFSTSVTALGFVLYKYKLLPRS
Briefly: Amplex Red HRP-coupled amine oxidase assay, recombinant human MAO-A. The assay is classed as biochemical. The following applies: 0.5 mM tyramine substrate, read-out: Inhibitory activity (IC50, nM) MAO-A. Summed up:
(§1)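 Enzyme preincubated 60 min at 37 °C with compound (six-point curve, 1% DMSO final) in 50 mM sodium phosphate pH 7.4, then Amplex Red 400 μM and HRP 2 U/mL added with substrate: MAO-A 0.5 mM tyramine, MAO-B 1 mM benzylamine, DAO 1 mM putrescine. Resorufin fluorescence read after 1 h; IC50 by four-parameter logistic fit.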

In assay [4] the target is T3, recombinant human MAO-B (monoamine oxidase-B) (Homo sapiens, UniProt P27338).
T3 construct: purchased Sigma-Aldrich
T3 sequence (P27338 1-520): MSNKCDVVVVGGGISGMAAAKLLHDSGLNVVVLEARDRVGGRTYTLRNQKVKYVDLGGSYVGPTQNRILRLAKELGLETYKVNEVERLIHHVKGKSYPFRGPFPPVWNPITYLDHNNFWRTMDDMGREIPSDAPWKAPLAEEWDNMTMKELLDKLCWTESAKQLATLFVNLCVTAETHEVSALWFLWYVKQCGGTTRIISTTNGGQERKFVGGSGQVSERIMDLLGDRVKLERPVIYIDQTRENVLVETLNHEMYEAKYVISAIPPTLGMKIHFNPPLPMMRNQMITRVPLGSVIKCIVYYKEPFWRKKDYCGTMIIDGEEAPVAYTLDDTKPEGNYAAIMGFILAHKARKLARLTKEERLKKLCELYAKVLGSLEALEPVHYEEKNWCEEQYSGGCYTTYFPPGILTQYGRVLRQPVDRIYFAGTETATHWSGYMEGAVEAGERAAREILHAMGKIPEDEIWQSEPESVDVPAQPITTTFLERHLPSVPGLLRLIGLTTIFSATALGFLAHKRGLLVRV
In words: Amplex Red HRP-coupled amine oxidase assay, recombinant human MAO-B. It is filed as biochemical. As to conditions: 1 mM benzylamine substrate, read-out: Inhibitory activity (IC50, nM) MAO-B. Summed up:
as §1

The target in assay [5] is T4, recombinant human DAO (diamine oxidase) (Homo sapiens, UniProt P19801).
T4 construct: purchased R&D systems
T4 sequence (P19801 20-751): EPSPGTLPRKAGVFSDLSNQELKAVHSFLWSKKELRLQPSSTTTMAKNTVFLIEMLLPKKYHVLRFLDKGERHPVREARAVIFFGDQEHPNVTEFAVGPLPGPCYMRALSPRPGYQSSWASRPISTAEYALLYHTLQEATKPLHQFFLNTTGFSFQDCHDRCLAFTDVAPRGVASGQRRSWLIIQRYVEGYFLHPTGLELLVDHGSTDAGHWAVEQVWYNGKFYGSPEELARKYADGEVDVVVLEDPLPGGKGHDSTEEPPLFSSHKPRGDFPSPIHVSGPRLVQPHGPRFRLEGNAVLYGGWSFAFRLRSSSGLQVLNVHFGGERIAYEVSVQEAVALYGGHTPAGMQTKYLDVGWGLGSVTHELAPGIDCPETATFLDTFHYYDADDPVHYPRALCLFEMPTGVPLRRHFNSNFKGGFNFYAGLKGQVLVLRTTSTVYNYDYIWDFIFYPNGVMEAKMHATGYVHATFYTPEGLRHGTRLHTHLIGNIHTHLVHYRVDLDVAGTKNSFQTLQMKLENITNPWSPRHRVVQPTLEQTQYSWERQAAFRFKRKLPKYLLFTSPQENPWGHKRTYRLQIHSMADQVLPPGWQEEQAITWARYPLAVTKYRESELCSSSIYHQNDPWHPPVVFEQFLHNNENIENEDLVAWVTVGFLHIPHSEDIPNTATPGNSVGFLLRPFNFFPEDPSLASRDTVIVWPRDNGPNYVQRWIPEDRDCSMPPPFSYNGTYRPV
Briefly: Amplex Red HRP-coupled amine oxidase assay, recombinant human DAO. The assay is classed as biochemical. The following applies: 1 mM putrescine substrate, read-out: Inhibitory activity (IC50, nM) DAO. Summed up:
as §1

For assay [6], the system named is mouse bleomycin-mediated lung injury model. The following applies: cited from earlier work.

Counter-ions that a name gives are not always drawn. Some results are limits rather than exact numbers.

As for `NC/C=C(\F)CS(=O)(=O)c1cccc2cccnc12` [PXS-5505], the renal fibrosis entry in assay [1] is listed as “significantly reduced renal fibrosis”.

On to `CS(=O)(=O)c1cccc(-c2cc(F)cc3c2ncn3C/C(F)=C/CN)c1` [Example 3, (Z)-3-fluoro-4-(6-fluoro-4-(3-(methylsulfonyl)phenyl)-1H-benzo[d]imidazol-1-yl)but-2-en-1-amine hydrochloride], for which the IC50 in assay [2] was 54 nM; in assay [3], over 100000 nM; in assay [4], 71200 nM; in assay [5], 2940 nM.

In the case of `CNS(=O)(=O)c1ccc(OC)c(-c2cc(C#N)cc3c2ncn3C/C(F)=C/CN)c1` [Example 183, (Z)-3-(1-(4-amino-2-fluorobut-2-en-1-yl)-6-cyano-1H-benzo[d]imidazol-4-yl)-4-methoxy-N-methylbenzenesulfonamide hydrochloride], the IC50 in assay [2] was 35.1 nM; in assay [3], over 100000 nM; in assay [4], over 100000 nM; in assay [5], 1820 nM.

For the compound `COC(=O)c1cc(-c2cc(S(=O)(=O)NC3CC3)ccc2OC)c2ncn(C/C(F)=C/CN)c2c1` [Example 27, methyl (Z)-1-(4-amino-2-fluorobut-2-en-1-yl)-4-(5-(N-cyclopropylsulfamoyl)-2-methoxyphenyl)-1H-benzo[d]imidazol-6-carboxylate hydrochloride], the IC50 was 31.3 nM in assay [2], 45700 nM in assay [3], over 100000 nM in assay [4] and 16100 nM in assay [5].

`COC(=O)c1cc(-c2cccc(S(C)(=O)=O)c2)c2nc(C)n(C/C(F)=C/CN)c2c1` [Example 67, methyl (Z)-1-(4-amino-2-fluorobut-2-en-1-yl)-2-methyl-4-(3-(methylsulfonyl)phenyl)-1H-benzo[d]imidazol-6-carboxylate hydrochloride]: the IC50 in assay [2] was 83 nM; in assay [3], over 100000 nM; in assay [4] it was over 100000 nM; in assay [5], 646 nM.

With `N#Cc1cc(-c2ccn(CCO)n2)c2ncn(C/C(F)=C/CN)c2c1` [Example 195, (Z)—1-(4-amino-2-fluorobut-2-en-1-yl)-4-(1-(2-hydroxyethyl)-1H-pyrazol-3-yl)-1H-benzo[d]imidazol-6-carbonitrile hydrochloride], the IC50 in assay [2] is 159 nM; in assay [3], over 100000 nM; in assay [4], over 100000 nM; in assay [5] it was 5560 nM.

Turning to `COC(=O)c1cc(-c2cccc(P(C)(C)=O)c2)c2ncn(C/C(F)=C/CN)c2c1` [Example 38, methyl (Z)-1-(4-amino-2-fluorobut-2-en-1-yl)-4-(3-(dimethylphosphoryl)phenyl)-1H-benzo[d]imidazol-6-carboxylate hydrochloride], the IC50 was 82.3 nM in assay [2], over 100000 nM in assay [3], over 100000 nM in assay [4] and 44500 nM in assay [5].

Turning to `Cc1nc2c(-c3cccc(S(=O)(=O)N4CCCC4)c3)cccc2n1C/C(F)=C/CN` [Example 60, (Z)-3-fluoro-4-(2-methyl-4-(3-(pyrrolidin-1-ylsulfonyl)phenyl)-1H-benzo[d]imidazol-1-yl)but-2-en-1-amine hydrochloride], the IC50 in assay [2] was 92 nM; in assay [3], 64200 nM; in assay [4], over 100000 nM; in assay [5], 636 nM.

Consider `NCc1cc(Oc2cccc(C(=O)N3C[C@@H](O)[C@H](F)C3)c2)nc(C(F)(F)F)c1` [PAT-1251], for which, in assay [6], the fibrosis entry is recorded as “significantly reduced fibrosis”.

With `NC/C=C(\F)Cn1cnc2c(-c3cccnc3)cc(C(F)(F)F)cc21` [Example 172, (Z)-3-fluoro-4-(4-(pyridin-3-yl)-6-(trifluoromethyl)-1H-benzo[d]imidazol-1-yl)but-2-en-1-amine hydrochloride], the IC50 in assay [2] was 311 nM; in assay [3], 17800 nM; in assay [4] it was 51600 nM; in assay [5], 3520 nM.

With `COc1ccc(S(=O)(=O)NC2CC2)cc1-c1cccc2c1nnn2C/C(F)=C/CN` [Example 108, (Z)-3-(1-(4-amino-2-fluorobut-2-en-1-yl)-1H-benzo[d][1,2,3]triazol-4-yl)-N-cyclopropyl-4-methoxybenzenesulfonamide hydrochloride], the IC50 in assay [2] was 42 nM; in assay [3], over 100000 nM; in assay [4] it was over 100000 nM; in assay [5], over 100000 nM.

As to `COC(=O)c1cc(-c2cccc(S(=O)(=O)N3CCC(F)(F)C3)c2)c2ncn(C/C(F)=C/CN)c2c1` [Example 22, methyl (Z)-1-(4-amino-2-fluorobut-2-en-1-yl)-4-(3-((3,3-difluoropyrrolidine-1-yl)sulfonyl)phenyl)-1H-benzo[d]imidazol-6-carboxylate hydrochloride], the IC50 in assay [2] was 19.9 nM; in assay [3], 53300 nM; in assay [4] it was over 100000 nM; in assay [5], 5070 nM.

Take `COC(=O)c1cc(-c2cccc(S(=O)(=O)N(C)C)c2)c2ncn(C/C(F)=C/CN)c2c1` [Example 31, methyl (Z)-1-(4-amino-2-fluorobut-2-en-1-yl)-4-(3-(N,N-dimethysulfamoyl)phenyl)-1H-benzo[d]imidazol-6-carboxylate hydrochloride]: the IC50 is 19.4 nM in assay [2], 24600 nM in assay [3], over 100000 nM in assay [4] and 139 nM in assay [5].
